# Experimental data taken from patent US7135615B2, “Chromosome doubling method” (The Curators of the University of Missouri, priority 2001, dated 2006).
# “And” between values parts separate entries of the source, which are not always exact repeats. Equal values may be shown once. Marks after values point to notes of the source that are not given here.
# Key:
# [1] = system: maize B55 haploid seedlings; assay: nitrous oxide gas treatment at 3–8 leaf stages, B55 haploids (Example 3); settings: for Ear (open pollinated): No. of fertile sectors /ear / Ear (open pollinated): No. of kernels produced /ear / Ear (open pollinated): Plants with fertile sectors % / No. of tassel branch Average / Plant height (cm) Average / Tassel: No. of fertile anthers extruded/tassel / Tassel: No. of fertile sectors/tassel / Tassel: Plants with fertile sectors % / Ear (open pollinated): Plants with fertile sectors No. / Tassel: Plants with fertile sectors No. / No. of plants Survived: 600 kPa, 2 days
# Text: Leaf stages were defined as follows, At the 3 leaf stage, there are three elongated leaves and the tip of the fourth leaf appears at the center of the leaf whorl. This stage is defined as V2 according to Ritchie et al. (1997). At the 8 leaf stage, there are 8 elongated leaves and the tip of the 9th and 10th leaves appear at the center of the leaf whorl (late V5 stage). At the 6 leaf stage, six elongated leaves are observable, and the tip of seventh leaf appears at the leaf whorl (late V4 or early V5 stage). Nine to sixteen haploid plants were treated at each stage using a large air tight iron chamber (FIG. 3). […] Moistened calcium hydroxide (50 g) wrapped in a paper towel was included to absorb carbon dioxide that is produced by the seedlings, as carbon dioxide at high concentration will injure the seedlings during the treatment. The soil of the pots was dried prior to treatment to prevent root injuries. […] The gas was introduced slowly into the chamber over a 10 minutes time frame.
# After the treatment, seedlings were transplanted into larger pots, and grown in a greenhouse. A relatively cool temperature (below 25° C.) was maintained to permit the appropriate development of doubled sectors. At flowering, the ears were cross pollinated by an appropriate pollen source to reveal all the fertile sectors on the ears. On the treated plants, plant height (cm), tassel size (cm), number of tassel branches, ear length (cm), the number of fertile sectors on a tassel and an ear, the number of anthers on a tassel, and the number of kernels on an ear were recorded.
# Analyses of variance and Duncan's Multiple Range Tests were performed to determine the effects of treatments on the plant height (cm), tassel size (cm), and ear length (cm). Chi square tests were used to determine the effects of treatments upon the proportion of plants that developed fertile tassel and ear sectors. The ratios of untreated plants with fertile sectors were used to estimate the significance of the ratio of treated plants with fertile sectors.
# Nonparametric tests were performed to compare the distributions. The primary test was the Kruskal-Wallis test. In the initial tests, the null hypothesis considered was that the distributions would be the same for each treatment and control. If the null hypothesis was rejected (P<0.05), then pair wise comparisons of each treatment to the control using Dunn's method were conducted. The tassel branch number was low incidence count data and was analyzed using the same nonparametric tests mentioned above.
# [2] = system: maize haploid seedlings of origin A619; assay: doubled haploid production trial, A619 haploids (Example 4); settings: 600 kPa, 2 days; for Ear: No. of kernels produced/ear: selfed
# Procedure: (§1) Ten to nineteen plants were treated for each plot. Self pollinations were conducted on these treated haploids if there were fertile sectors on the tassel. Pollen grains were collected carefully on a sheet of paper and transferred to the silks repeatedly. Silks and husks were cut back prior to pollination in order to permit maximum seed set. The numbers of fertile tassel and ear sectors, as well as the numbers of anthers and selfed kernels were recorded. Statistical analyses were as described above.
# [3] = system: maize haploid seedlings of origin W22 × W23; assay: doubled haploid production trial, W22 × W23 haploids (Example 4); settings: 600 kPa, 2 days; for Ear: No. of kernels produced/ear: selfed
# Procedure: as §1
structure (smiles),measurement,setting,value
"[N-]=[N+]=O [nitrous oxide gas, nitrous oxide]",Ear (open pollinated): No. of fertile sectors /ear,[1]; 3 leaf stage,1.1 /ear
same,Ear (open pollinated): No. of kernels produced /ear,[1]; 3 leaf stage,49.0* /ear
same,Ear (open pollinated): Plants with fertile sectors %,[1]; 3 leaf stage,67%
same,No. of tassel branch Average,[1]; 3 leaf stage,18.8*
same,Plant height (cm) Average,[1]; 3 leaf stage,183 cm·days
same,Tassel: No. of fertile anthers extruded/tassel,[1]; 3 leaf stage,35.6 /tassel
same,Tassel: No. of fertile sectors/tassel,[1]; 3 leaf stage,1.1 /tassel
same,Tassel: Plants with fertile sectors %,[1]; 3 leaf stage,67%
same,Ear (open pollinated): Plants with fertile sectors No.,"[1]; 3 leaf stage, 9 examined",6
same,Tassel: Plants with fertile sectors No.,"[1]; 3 leaf stage, 9 examined",6
same,No. of plants Survived,"[1]; 3 leaf stage, 10 treated",9
same,"number of anthers /tassel, span over treatments",[1]; 3–8 leaf stage treatments,35.6–521 /tassel
same,"number of kernels on the ears, span over treatments",[1]; 3–8 leaf stage treatments,10.9–49.0
same,Ear (open pollinated): No. of fertile sectors /ear,[1]; 4 leaf stage,2.8** /ear
same,Ear (open pollinated): No. of kernels produced /ear,[1]; 4 leaf stage,21.5** /ear
same,Ear (open pollinated): Plants with fertile sectors %,[1]; 4 leaf stage,100** %
same,No. of tassel branch Average,[1]; 4 leaf stage,20.1
same,Plant height (cm) Average,[1]; 4 leaf stage,168 bc cm
same,Tassel: No. of fertile anthers extruded/tassel,[1]; 4 leaf stage,111.5* /tassel
same,Tassel: No. of fertile sectors/tassel,[1]; 4 leaf stage,1.5 /tassel
same,Tassel: Plants with fertile sectors %,[1]; 4 leaf stage,64%
same,Ear (open pollinated): Plants with fertile sectors No.,"[1]; 4 leaf stage, 11 examined",11
same,Tassel: Plants with fertile sectors No.,"[1]; 4 leaf stage, 11 examined",7
same,No. of plants Survived,"[1]; 4 leaf stage, 11 treated",11
same,Ear (open pollinated): No. of fertile sectors /ear,[1]; 5 leaf stage,1.6 /ear
same,Ear (open pollinated): No. of kernels produced /ear,[1]; 5 leaf stage,40.4** /ear
same,Ear (open pollinated): Plants with fertile sectors %,[1]; 5 leaf stage,89* %
same,No. of tassel branch Average,[1]; 5 leaf stage,13.9**
same,Plant height (cm) Average,[1]; 5 leaf stage,170 c cm
same,Tassel: No. of fertile anthers extruded/tassel,[1]; 5 leaf stage,139.6** /tassel
same,Tassel: No. of fertile sectors/tassel,[1]; 5 leaf stage,3.0* /tassel
same,Tassel: Plants with fertile sectors %,[1]; 5 leaf stage,100** %
same,Ear (open pollinated): Plants with fertile sectors No.,"[1]; 5 leaf stage, 9 examined",8
same,Tassel: Plants with fertile sectors No.,"[1]; 5 leaf stage, 9 examined",9
same,No. of plants Survived,"[1]; 5 leaf stage, 9 treated",9
same,frequency of fertile sectors on the tassels,[1]; 5–7 leaf stages,100%
same,number of anthers on the tassels,[1]; 5–7 leaf stages,140–521 /tassel
same,number of kernels on the ears,[1]; 5–7 leaf stages,40.4–47.5 /ear
same,Ear (open pollinated): No. of fertile sectors /ear,[1]; 6 leaf stage,1.7 /ear
same,Ear (open pollinated): No. of kernels produced /ear,[1]; 6 leaf stage,45.5** /ear
same,Ear (open pollinated): Plants with fertile sectors %,[1]; 6 leaf stage,90* %
same,No. of tassel branch Average,[1]; 6 leaf stage,14.5**
same,Plant height (cm) Average,[1]; 6 leaf stage,165 bc cm
same,Tassel: No. of fertile anthers extruded/tassel,[1]; 6 leaf stage,521 /tassel and 521.1** /tassel
same,Tassel: No. of fertile sectors/tassel,[1]; 6 leaf stage,5.7** /tassel
same,Tassel: Plants with fertile sectors %,[1]; 6 leaf stage,100** %
same,Ear (open pollinated): Plants with fertile sectors No.,"[1]; 6 leaf stage, 10 examined",9
same,Tassel: Plants with fertile sectors No.,"[1]; 6 leaf stage, 10 examined",10
same,No. of plants Survived,"[1]; 6 leaf stage, 10 treated",10
same,Ear (open pollinated): No. of fertile sectors /ear,[1]; 7 leaf stage,1.8 /ear
same,Ear (open pollinated): No. of kernels produced /ear,[1]; 7 leaf stage,47.5** /ear
same,Ear (open pollinated): Plants with fertile sectors %,[1]; 7 leaf stage,82%
same,No. of tassel branch Average,[1]; 7 leaf stage,14.3**
same,Plant height (cm) Average,[1]; 7 leaf stage,168 bc cm
same,Tassel: No. of fertile anthers extruded/tassel,[1]; 7 leaf stage,267.3** /tassel
same,Tassel: No. of fertile sectors/tassel,[1]; 7 leaf stage,9.6** /tassel
same,Tassel: Plants with fertile sectors %,[1]; 7 leaf stage,100** %
same,Ear (open pollinated): Plants with fertile sectors No.,"[1]; 7 leaf stage, 11 examined",9
same,Tassel: Plants with fertile sectors No.,"[1]; 7 leaf stage, 11 examined",11
same,No. of plants Survived,"[1]; 7 leaf stage, 11 treated",11
same,Ear (open pollinated): No. of fertile sectors /ear,[1]; 8 leaf stage,2.3** /ear
same,Ear (open pollinated): No. of kernels produced /ear,[1]; 8 leaf stage,10.9* /ear
same,Ear (open pollinated): Plants with fertile sectors %,[1]; 8 leaf stage,92** %
same,No. of tassel branch Average,[1]; 8 leaf stage,20.4*
same,Plant height (cm) Average,[1]; 8 leaf stage,137 a cm
same,Tassel: No. of fertile anthers extruded/tassel,[1]; 8 leaf stage,283.2** /tassel
same,Tassel: No. of fertile sectors/tassel,[1]; 8 leaf stage,>18.6** /tassel
same,Tassel: Plants with fertile sectors %,[1]; 8 leaf stage,100** %
same,Ear (open pollinated): Plants with fertile sectors No.,"[1]; 8 leaf stage, 12 examined",11
same,Tassel: Plants with fertile sectors No.,"[1]; 8 leaf stage, 12 examined",12
same,No. of plants Survived,"[1]; 8 leaf stage, 12 treated",12
same,Ear: Plants with kernels after selfing %,[2]; 5 leaf stage,17 n.s. %
same,Tassel: No. of fertile anthers extruded/tassel,[2]; 5 leaf stage,4.5 n.s /tassel
same,Tassel: No. of fertile sectors/tassel,[2]; 5 leaf stage,0.3 n.s. /tassel
same,Tassel: Plants with fertile sectors %,[2]; 5 leaf stage,25 n.s. %
same,Ear: Plants with kernels after selfing No.,"[2]; 5 leaf stage, 12 survived",2
same,Tassel: Plants with fertile sectors No.,"[2]; 5 leaf stage, 12 survived",3
same,No. of plants Survived,"[2]; 5 leaf stage, 12 treated",12
same,Ear: No. of kernels produced/ear,[2]; 5 leaf stage,0.3 n.s. /ear
same,Ear: Plants with kernels after selfing %,[2]; 6 leaf stage,33%
same,Tassel: No. of fertile anthers extruded/tassel,[2]; 6 leaf stage,3.2 /tassel
same,Tassel: No. of fertile sectors/tassel,[2]; 6 leaf stage,0.6 /tassel
same,Tassel: Plants with fertile sectors %,[2]; 6 leaf stage,56%
same,Ear: Plants with kernels after selfing No.,"[2]; 6 leaf stage, 9 survived",3
same,Tassel: Plants with fertile sectors No.,"[2]; 6 leaf stage, 9 survived",5
same,No. of plants Survived,"[2]; 6 leaf stage, 9 treated",9
same,Ear: No. of kernels produced/ear,[2]; 6 leaf stage,2.0 /ear
same,Ear: Plants with kernels after selfing %,[2]; 7 leaf stage,31%
same,Tassel: No. of fertile anthers extruded/tassel,[2]; 7 leaf stage,8.2 /tassel
same,Tassel: No. of fertile sectors/tassel,[2]; 7 leaf stage,1.6 /tassel
same,Tassel: Plants with fertile sectors %,[2]; 7 leaf stage,54%
same,Ear: Plants with kernels after selfing No.,"[2]; 7 leaf stage, 13 survived",4
same,Tassel: Plants with fertile sectors No.,"[2]; 7 leaf stage, 13 survived",7
same,No. of plants Survived,"[2]; 7 leaf stage, 14 treated",13
same,Ear: No. of kernels produced/ear,[2]; 7 leaf stage,1.6 /ear
same,Ear: Plants with kernels after selfing %,[3]; 5 leaf stage,45 n.s. %
same,Tassel: No. of fertile anthers extruded/tassel,[3]; 5 leaf stage,27.6 n.s /tassel
same,Tassel: No. of fertile sectors/tassel,[3]; 5 leaf stage,1.1 n.s. /tassel
same,Tassel: Plants with fertile sectors %,[3]; 5 leaf stage,64 n.s. %
same,Ear: Plants with kernels after selfing No.,"[3]; 5 leaf stage, 11 survived",5
same,Tassel: Plants with fertile sectors No.,"[3]; 5 leaf stage, 11 survived",7
same,No. of plants Survived,"[3]; 5 leaf stage, 12 treated",11
same,Ear: No. of kernels produced/ear,[3]; 5 leaf stage,9.5 n.s. /ear
same,Ear: Plants with kernels after selfing %,[3]; 6 leaf stage,40%
same,Tassel: No. of fertile anthers extruded/tassel,[3]; 6 leaf stage,18.0 /tassel
same,Tassel: No. of fertile sectors/tassel,[3]; 6 leaf stage,2.1 /tassel
same,Tassel: Plants with fertile sectors %,[3]; 6 leaf stage,60%
same,Ear: Plants with kernels after selfing No.,"[3]; 6 leaf stage, 10 survived",4
same,Tassel: Plants with fertile sectors No.,"[3]; 6 leaf stage, 10 survived",6
same,No. of plants Survived,"[3]; 6 leaf stage, 12 treated",10
same,Ear: No. of kernels produced/ear,[3]; 6 leaf stage,3.3 /ear
same,Ear: Plants with kernels after selfing %,[3]; 7 leaf stage,43%
same,Tassel: No. of fertile anthers extruded/tassel,[3]; 7 leaf stage,7.1 /tassel
same,Tassel: No. of fertile sectors/tassel,[3]; 7 leaf stage,1.9 /tassel
same,Tassel: Plants with fertile sectors %,[3]; 7 leaf stage,71%
same,Ear: Plants with kernels after selfing No.,"[3]; 7 leaf stage, 7 survived",3
same,Tassel: Plants with fertile sectors No.,"[3]; 7 leaf stage, 7 survived",5
same,No. of plants Survived,"[3]; 7 leaf stage, 8 treated",7
same,Ear: No. of kernels produced/ear,[3]; 7 leaf stage,11.4 /ear
